This is an account of results in patent publication US6372779B1, “Anti-inflammatory compounds” (Ortho Pharmaceutical Corporation, priority 1997, dated 2002).

In series [1] the test system is oxazolone-induced ear swelling in CD-1 mice. Description: mouse oxazolone-induced contact hypersensitization (MOCH), ear swelling. Type of series: in vivo. The following applies: topical to ear, 1 mg, mouse, 24 hours after oxazolone challenge; read-out: Oxazolone Ear Swelling (MOCH) % inhibition vs. Vehicle at 1 mg. The procedure: Several triphenylpropanamide compounds of this invention, having varying affinities for the human glucocorticoid receptor, were tested for topical antiinflammatory activity in mouse ear inflammation models. […] Compounds having receptor affinities closer to hydrocortisone were as nearly active as hydrocortisone in suppressing mouse oxazolone-induced contact hypersensitization (MOCH) and phorbol ester-induced ear edema. The in vivo studies of this example were conducted as follows.
In determining the MOCH using the compounds of this invention, albino male CD-1 mice, 7-9 weeks old were induced on the shaved abdomen with 50 μl of 3% oxazolone in acetone/corn oil (Day 0). On Day 5, a 20 μl volume of 2% oxazolone in acetone was applied to the dorsal left ear of the mouse. Compounds (made in ethanol/propylene glycol, 70:30) were applied to the left ear in 20 μl volume, one hour after oxazolone challenge. The right ear was not treated. The mice were sacrificed by carbon dioxide inhalation 24 hours after oxazolone challenge, the left and right ears were removed and a 7 mm biopsy was removed from each ear and weighed. The difference in biopsy weights between the right and left ears was calculated. Antiinflammatory effects of compounds were evident as an inhibition of the increase in ear weight.

The subject of series [2] is human progesterone receptor (hPR). Description: human progesterone receptor binding assay (displacement of 3H R5020 promegestone). The procedure:
A human progesterone receptor binding assay was performed in order to determine selectivity of the compounds, as follows. Human progesterone receptors were prepared from either insect cells (SF21) infected with baculovirus hPR A, or from a breast cancer cell line, T47D, which expresses high levels of endogenous hPR. The receptor binding reactions, with or without test compounds, were set up in 96-well microtiter plates which were previously siliconized with SIGMACOTE. The binding components, 3(H) R5020 Promegestone, a high affinity ligand for the progesterone receptors, glycerollmolybdate-containing buffer and unlabeled compounds were added to the wells using a combination of BIOMEK laboratory automation system and repeat pipettes. After overnight incubation, the samples were precipitated with polyethylene glycol and filtered through Whatman GF/F paper using a TOMTEK cell harvester. The filter mate with 96 samples were bound to a solid-phase scintillant and directly counted in the BETAPLATE counter. Only those compounds that were active in the human glucocorticoid receptor assay set forth in Example 30 were used for progesterone receptor binding to determine cross-reactivity profiles, if any. The activity of test compounds to displace 3(H) R5020 binding to hPR is expressed as percent inhibition at the two concentrations, 10^−6 and 10^−5 Molar.
On the technique in general: In a radioligand displacement assay an active substance lowers the binding of a labelled ligand.

Broadly, the melting point is the temperature of the solid-liquid transition. The compound `O=C(NCC(c1ccccc1)C(c1ccccc1)c1ccccc1)c1cccs1` (stereo not shown) [Compound 45] registered a melting point of 139 to 142 °C. The inhibition in vivo at 1 mg in series [1] turned out to be 31%.
The compound `O=C(Cc1c[nH]c2ccccc12)NCC(c1ccccc1)C(c1ccccc1)c1ccccc1` (stereo not shown) [Compound 47] displayed a melting point of 89 to 93 °C. Also, the inhibition in vivo at 1 mg in series [1] was found to be 51%.
Consider `O=C(CCc1c[nH]c2ccccc12)NCC(c1ccccc1)C(c1ccccc1)c1ccccc1` (stereo not shown) [Compound 48], for which the melting point was 100 to 114 °C. In addition, the inhibition in vivo at 1 mg in series [1] stood at 22%.
On to `O=C(Cc1ccccn1)NCC(c1ccccc1)C(c1ccccc1)c1ccccc1` (stereo not shown) [Compound 49], for which the melting point lay in the range of 120.1 to 121.7 °C. Further, the inhibition in vivo at 1 mg in series [1] is 20%.
Compound `O=C(NCC(c1ccccc1)C(c1ccccc1)c1ccccc1)Nc1ccccc1F` (stereo not shown) [Compound 53] displayed a melting point of 190 to 191 °C. Further, the inhibition in vivo at 1 mg in series [1] stood at 24%.
Compound `O=C(NCc1ccccc1)NCC(c1ccccc1)C(c1ccccc1)c1ccccc1` (stereo not shown) [Compound 54] returned a melting point of 170 to 171 °C. Moreover, the inhibition in vivo at 1 mg in series [1] was 10%.
Take `O=C(NCc1ccc(Cl)cc1Cl)NCC(c1ccccc1)C(c1ccccc1)c1ccccc1` (stereo not shown) [Compound 55]: the melting point fell in the range of 166 to 167 °C. Further, in series [1], the inhibition in vivo at 1 mg was 18%.
In turn, `O=C(NCC(c1ccccc1)C(c1ccccc1)c1ccccc1)Oc1ccccc1` (stereo not shown) [Compound 56] yielded a melting point of 128 to 129 °C. Also, the inhibition in vivo at 1 mg in series [1] amounted to 38%.
`O=C(NCC(c1ccccc1)C(c1ccccc1)c1ccccc1)Oc1ccc(F)cc1` (stereo not shown) [Compound 58]: the melting point lay in the range of 150 to 151 °C. Besides, in series [1], the inhibition in vivo at 1 mg turned out to be 16%.
Compound `CCCC(=O)NCC(c1ccccc1)C(c1ccccc1)c1ccccc1` (stereo not shown) [Compound 60] had a melting point of 88 to 89 °C. Moreover, in series [1], the inhibition in vivo at 1 mg is 27%.
`CC(C)C(=O)NCC(c1ccccc1)C(c1ccccc1)c1ccccc1` (stereo not shown) [Compound 61] came in with a melting point of 114 to 115 °C. For the same compound, the inhibition in vivo at 1 mg in series [1] was found to be 17%.
The compound `CCCCC(=O)NCC(c1ccccc1)C(c1ccccc1)c1ccccc1` (stereo not shown) [Compound 62] came in with a melting point of 78 to 79 °C. Further, the inhibition in vivo at 1 mg in series [1] came out at 36%.
The matching figures for `CC(C)CC(=O)NCC(c1ccccc1)C(c1ccccc1)c1ccccc1` (stereo not shown) [Compound 63]: 112 to 113 °C and 3%.
As for `CC(C)(C)C(=O)NCC(c1ccccc1)C(c1ccccc1)c1ccccc1` (stereo not shown) [Compound 64], the melting point lay in the range of 143 to 144 °C. Besides, in series [1], the inhibition in vivo at 1 mg was 26%.
Take `CCOC(=O)CC(=O)NCC(c1ccccc1)C(c1ccccc1)c1ccccc1` (stereo not shown) [Compound 65]: the melting point is 103 to 105.5 °C. Also, the inhibition in vivo at 1 mg in series [1] is 13%.
As to `O=C(Cc1ccccc1)NCC(c1ccccc1)C1c2ccccc2-c2ccccc21` (stereo not shown) [Compound 66], the melting point was in the range of 148.7 to 150.8 °C. Moreover, in series [1], the inhibition in vivo at 1 mg was 20%.
Compound `COc1ccccc1CCC(=O)NCC(c1ccccc1)C1c2ccccc2CCc2ccccc21` (stereo not shown) [Compound 74] showed a melting point of 134.3 to 136.8 °C. In series [1], the inhibition in vivo at 1 mg was 18%.
In the case of `O=C(Cc1cccs1)NCC(c1ccccc1)C1c2ccccc2CCc2ccccc21` (stereo not shown) [Compound 75], the melting point fell in the range of 175 to 177.5 °C. In series [1], the inhibition in vivo at 1 mg worked out at 26%.
With `O=C(Cc1ccsc1)NCC(c1ccccc1)C1c2ccccc2CCc2ccccc21` (stereo not shown) [Compound 76], the melting point was 167.3 to 169.3 °C. In addition, the inhibition in vivo at 1 mg in series [1] was found to be 23%.
The corresponding values for `Cc1ccc(C(=O)NCC(c2ccccc2)C2c3ccccc3CCc3ccccc32)s1` (stereo not shown) [Compound 77] are 172.1 to 173 °C and 41%.
`COc1ccc(CC(=O)NCC2(c3ccccc3)CC2(c2ccccc2)c2ccccc2)cc1OC` (stereo not shown) [Compound 79] displayed a melting point of 131 to 133.5 °C. Besides, the inhibition in vivo at 1 mg in series [1] was 18%.
In the case of `O=C(Cc1ccccc1Cl)NCC1(c2ccccc2)CC1(c1ccccc1)c1ccccc1` (stereo not shown) [Compound 80, N-(2chlorophenyl)acetyl-1,2,2-triphenylcyclopropylmethylamine], the melting point was in the range of 128.5 to 130.5 °C. Also, the inhibition in vivo at 1 mg in series [1] was 54%.
The matching figures for `COc1ccccc1CCC(=O)NCC1(c2ccccc2)CC1(c1ccccc1)c1ccccc1` (stereo not shown) [Compound 81]: 187.5 to 189 °C and 22%.
The corresponding values for `O=C(NCC1(c2ccccc2)CC1(c1ccccc1)c1ccccc1)C(c1ccccc1)c1ccccc1` (stereo not shown) [Compound 82] are 166 to 169 °C and 23%.
Take `CCCC(=O)NCC1(c2ccccc2)CC1(c1ccccc1)c1ccccc1` (stereo not shown) [Compound 83]: the melting point was in the range of 149 to 150 °C. The inhibition in vivo at 1 mg in series [1] is -4%.
In turn, `CC(C)C(=O)NCC1(c2ccccc2)CC1(c1ccccc1)c1ccccc1` (stereo not shown) [Compound 84] had a melting point of 167 to 168 °C. Further, the inhibition in vivo at 1 mg in series [1] came out at 54%.
Compound `CCCCC(=O)NCC1(c2ccccc2)CC1(c1ccccc1)c1ccccc1` (stereo not shown) [Compound 87] had a melting point of 122 to 123 °C. For the same compound, the inhibition in vivo at 1 mg in series [1] came to 22%.
The corresponding values for `O=C(Cc1cccs1)NCC1(c2ccccc2)CC1(c1ccccc1)c1ccccc1` (stereo not shown) [Compound 88] are 135 to 137 °C and 29%.
Compound `O=C(Cc1ccsc1)NCC1(c2ccccc2)CC1(c1ccccc1)c1ccccc1` (stereo not shown) [Compound 89] returned a melting point of 130 to 135 °C. In addition, the inhibition in vivo at 1 mg in series [1] was 16%.
The corresponding values for `O=C(NCC1(c2ccccc2)CC1(c1ccccc1)c1ccccc1)c1cccs1` (stereo not shown) [Compound 90] are 152.5 to 155 °C and 65%.
Compound `Cc1ccc(C(=O)NCC2(c3ccccc3)CC2(c2ccccc2)c2ccccc2)s1` (stereo not shown) [Compound 91] registered a melting point of 168 to 170.5 °C. Also, the inhibition in vivo at 1 mg in series [1] worked out at 13%.
For `O=C(NCC1(c2ccccc2)CC1(c1ccccc1)c1ccccc1)Nc1ccccc1` (stereo not shown) [Compound 92], the melting point fell in the range of 209 to 210 °C. Besides, the inhibition in vivo at 1 mg in series [1] was 42%.
Take `O=C(NCC1(c2ccccc2)CC1(c1ccccc1)c1ccccc1)Oc1ccccc1` (stereo not shown) [Compound 96]: the melting point lay in the range of 146 to 147 °C. Moreover, the inhibition in vivo at 1 mg in series [1] was 52%.
The compound `O=C(NCC1(c2ccccc2)CC1(c1ccccc1)c1ccccc1)Oc1ccc(Cl)cc1` (stereo not shown) [Compound 97] yielded a melting point of 171 to 172 °C. In addition, in series [1], the inhibition in vivo at 1 mg was found to be 50%.
As for `O=C(Cc1cc(C(F)(F)F)cc(C(F)(F)F)c1)NCC(c1ccc(C(F)(F)F)cc1)C(c1ccccc1)c1ccccc1` (stereo not shown) [Compound 151], in series [2], the “hPR % inh 10 μM” value amounted to 41%.
Regarding `Cc1ccc(CC(=O)NCC(c2ccc(C(F)(F)F)cc2)C(c2ccccc2)c2ccccc2)cc1` (stereo not shown) [Compound 152], in series [2], the “hPR % inh 10 μM” value is 41%.
The same measure, in the same setting: for `O=C(Cc1ccc([N+](=O)[O-])cc1)NCC(c1ccc(C(F)(F)F)cc1)C(c1ccccc1)c1ccccc1` (stereo not shown) [Compound 154] the value was 34%; for `CN(C)c1ccc(CC(=O)NCC(c2ccc(C(F)(F)F)cc2)C(c2ccccc2)c2ccccc2)cc1` (stereo not shown) [Compound 155], 29%.
As for `O=C(Cc1ccc(-c2ccccc2)cc1)NCC(c1ccc(C(F)(F)F)cc1)C(c1ccccc1)c1ccccc1` (stereo not shown) [Compound 156], the “hPR % inh 10 μM” value in series [2] came out at 19%.
In the case of `O=C(Cc1ccc2ccccc2c1)NCC(c1ccc(C(F)(F)F)cc1)C(c1ccccc1)c1ccccc1` (stereo not shown) [Compound 157], the “hPR % inh 10 μM” value in series [2] was determined as 10%.
For `Cc1c(CC(=O)NCC(c2ccc(C(F)(F)F)cc2)C(c2ccccc2)c2ccccc2)sc2ccc(Cl)cc12` (stereo not shown) [Compound 158], the “hPR % inh 10 μM” value in series [2] was 16%.
With `CN(C)c1ccc(C=CC(=O)NCC(c2ccc(C(F)(F)F)cc2)C(c2ccccc2)c2ccccc2)cc1` (stereo not shown) [Compound 159], the “hPR % inh 10 μM” value in series [2] was 12%.
Same read-out and setting: for `O=C(NCC(c1ccc(C(F)(F)F)cc1)C(c1ccccc1)c1ccccc1)c1cc(C(F)(F)F)cc(C(F)(F)F)c1` (stereo not shown) [Compound 160] the value was 10%.
Turning to `O=C(Cc1ccccc1Cl)NCC(c1ccc(I)cc1)C(c1ccccc1)c1ccccc1` (stereo not shown) [Compound 161], the “hPR % inh 10 μM” value in series [2] was 42%.
As to `O=C(Cc1ccc(Cl)cc1)NCC(c1ccc(I)cc1)C(c1ccccc1)c1ccccc1` (stereo not shown) [Compound 162], the “hPR % inh 10 μM” value in series [2] worked out at 30%.
